A short description of series [1]: In vitro metabolic stability in rat brain homogenates. In kind it is in vitro ADME. The conditions noted are these: 10 μM, 37° C., 0 hour to 1 hour, n=3. As for the experimental part: In vitro metabolic stability assessment was performed using brain homogenates. For the brain homogenates washed tissues were diluted 10-fold in 0.1-M potassium phosphate buffer and homogenized using a probe sonicator. […] Samples from each incubation at predetermined time points (0, 0.5, and 1h) were quenched with 3X volumes of acetonitrile containing the internal standard (IS; losartan: 0.5 μm). […] Disappearance of the intact compound and release of Testosterone were measured using liquid chromatography tandem mass spectrometry (LC-MS; full scan mode).
The metabolic stability of prodrugs (n=3) was evaluated using rat brain homogenates. The rat brain was homogenized using 100-mM phosphate buffer with 1:10 dilution (w/v). 10 μM concentration of the compounds was incubated at 37° C. and stability was evaluated from 0 hour to 1 hour. After incubation samples were precipitated using acetonitrile containing internal standard and quantified using high-resolution LC-MS/MS.

The conditions of series [2]: female rats, IN, 1.1 mg/kg equivalent of Testosterone, 1h post dose. As for the experimental part:
All prodrugs were administered intranasally (IN) at a dose of 1.1 mg/kg equivalent of Testosterone using a formulation of 5% Tween-80, 5% DMSO and 90% PBS containing 10 mM HEPES. Blood and brain were collected after sacrificing the animals at predetermined time point. Plasma was harvested from blood by centrifugation at 3,000 RPM for 15 min and stored at −80° C. Brain tissues were harvested following blood collection and immediately snap frozen in liquid nitrogen and stored at −80° C. until LC-MS/MS analysis. Calibration standards were prepared using naïve female rat plasma or brain with additions of respective prodrugs. For quantifying the released testosterone in the pharmacokinetic samples, plasma samples (20 μL) were processed by protein precipitation method by addition of 200 μL of acetonitrile containing internal standard (losartan: 0.5 μM), followed by vortex-mixing for 30 s and then centrifugation at 10,000 RPM for 10 min at 4° C. Brain tissues were diluted 1:5 w/v with acetonitrile containing losartan (0.5 μm) and homogenized, followed by vortex-mixing and centrifugation at 10,000 RPM for 10 min at 4° C. A 50 μL aliquot of the supernatant was diluted with 50 μL of water and transferred to 250 μL polypropylene autosampler vials sealed with teflon caps. Then, 2 μL of the sample was injected into the LC-MS/MS system for analysis.
The in vivo pharmacokinetics of prodrugs (P1, P3, P4, P5, P6, P7, P8, P9, P10, P11, P12, P13 and P14) were evaluated in female rats.

On to `CC(C)OC(=O)OCO[C@H]1CC[C@H]2[C@@H]3CCC4=CC(=O)CC[C@]4(C)[C@H]3CC[C@]12C` [Prodrug P1, (((8R,9S,10R,13S,14S,17S)-10,13-Dimethyl-3-oxo-2,3,6,7,8,9,10,11,12,13,14,15,16,17-tetradecahydro-1H-cyclopenta[α]phenanthren-17-yl)oxy)methyl isopropyl carbonate], for which the “stable in brain homogenate” value in series [1] came to 20%. The “plasma levels compared with testosterone” value in series [2] was “lower”.

With `CN(C)CC(=O)O[C@H]1CC[C@H]2[C@@H]3CCC4=CC(=O)CC[C@]4(C)[C@H]3CC[C@]12C` [Prodrug P3, (8R,9S,10R,13S,14S,17S)-10,13-Dimethyl-3-oxo-2,3,6,7,8,9,10,11,12,13,14,15,16,17-tetradecahydro-1H-cyclopenta[α]phenanthren-17-yl dimethylglycinate], the “stability in rat brain homogenate” value in series [1] is reported as “moderately stable”. For the same molecule, the “plasma levels compared with testosterone” value in series [2] is given as “lower”.

Regarding `CC(C)[C@H](N)C(=O)N[C@@H](C(=O)O[C@H]1CC[C@H]2[C@@H]3CCC4=CC(=O)CC[C@]4(C)[C@H]3CC[C@]12C)C(C)C` [Prodrug P4, (8R,9S,10R,13S,14S,17S)-10,13-Dimethyl-3-oxo-2,3,6,7,8,9,10,11,12,13,14,15,16,17-tetradecahydro-1H-cyclopenta[α]phenanthren-17-yl L-valyl-D-valinate], the “levels of testosterone release” value in series [2] is given as “low levels”.

As to `CN1CCN(CC(=O)O[C@H]2CC[C@H]3[C@@H]4CCC5=CC(=O)CC[C@]5(C)[C@H]4CC[C@]23C)CC1` [Prodrug P5, (8R,9S,10R,13S,14S,17S)-10,13-Dimethyl-3-oxo-2,3,6,7,8,9,10,11,12,13,14,15,16,17-tetradecahydro-1H-cyclopenta[α]phenanthren-17-yl 2-(4-methylpiperazin-1-yl)acetate], in series [1], the “stability in rat brain homogenate” value is recorded as “stable”. Besides, the “levels of testosterone release” value in series [2] is reported as “low levels”.

On to `C[C@]12CC[C@H]3[C@@H](CCC4=CC(=O)CC[C@@]43C)[C@@H]1CC[C@@H]2OC(=O)CN1CCOCC1` [Prodrug P6, (8R,9S,10R,13S,14S,17S)-10,13-Dimethyl-3-oxo-2,3,6,7,8,9,10,11,12,13,14,15,16,17-tetradecahydro-1H-cyclopenta[α]phenanthren-17-yl 2-morpholinoacetate], for which the “stability in rat brain homogenate” value in series [1] is on record as “stable”. Besides, the “levels of testosterone release” value in series [2] is listed as “low levels”.

Take `C[C@]12CC[C@H]3[C@@H](CCC4=CC(=O)CC[C@@]43C)[C@@H]1CC[C@@H]2OC(=O)C(Cl)Cl` [Prodrug P7, (8R,9S,10R,13S,14S,17S)-10,13-Dimethyl-3-oxo-2,3,6,7,8,9,10,11,12,13,14,15,16,17-tetradecahydro-1H-cyclopenta[α]phenanthren-17-yl 2,2-dichloroacetate]: in series [1], the “stability in rat brain homogenate” value was “moderately stable”.

On to `CN(C)CC(=O)NCC(=O)O[C@H]1CC[C@H]2[C@@H]3CCC4=CC(=O)CC[C@]4(C)[C@H]3CC[C@]12C` [Prodrug P8, (8R,9S,10R,13S,14S,17S)-10,13-Dimethyl-3-oxo-2,3,6,7,8,9,10,11,12,13,14,15,16,17-tetradecahydro-1H-cyclopenta[α]phenanthren-17-yl dimethylglycylglycinate], for which the “stability in rat brain homogenate” value in series [1] was “stable”. The “levels of testosterone release” value in series [2] was “low levels”.

On to `CN(C)CC(=O)NCC(=O)NCC(=O)O[C@H]1CC[C@H]2[C@@H]3CCC4=CC(=O)CC[C@]4(C)[C@H]3CC[C@]12C` [Prodrug P9, (8R,9S,10R,13S,14S,17S)-10,13-Dimethyl-3-oxo-2,3,6,7,8,9,10,11,12,13,14,15,16,17-tetradecahydro-1H-cyclopenta[α]phenanthren-17-yl dimethylglycylglycylglycinate], for which, in series [1], the “stability in rat brain homogenate” value is recorded as “stable”.

For the molecule `C[C@]12CC[C@H]3[C@@H](CCC4=CC(=O)CC[C@@]43C)[C@@H]1CC[C@@H]2OC(=O)CNC(=O)CN` [Prodrug P10, (8R,9S,10R,13S,14S,17S)-10,13-Dimethyl-3-oxo-2,3,6,7,8,9,10,11,12,13,14,15,16,17-tetradecahydro-1H-cyclopenta[α]phenanthren-17-yl glycylglycinate], in series [1], the “stability in rat brain homogenate” value is recorded as “moderately stable”.

For the molecule `CC(C)C[C@H](NC(=O)CN(C)C)C(=O)O[C@H]1CC[C@H]2[C@@H]3CCC4=CC(=O)CC[C@]4(C)[C@H]3CC[C@]12C` [Prodrug P11, (8R,9S,10R,13S,14S,17S)-10,13-Dimethyl-3-oxo-2,3,6,7,8,9,10,11,12,13,14,15,16,17-tetradecahydro-1H-cyclopenta[α]phenanthren-17-yl dimethylglycyl-L-leucinate], the “stability in rat brain homogenate” value in series [1] is reported as “stable”.

Take `CN(C)CC(=O)N[C@@H](Cc1ccccc1)C(=O)O[C@H]1CC[C@H]2[C@@H]3CCC4=CC(=O)CC[C@]4(C)[C@H]3CC[C@]12C` [Prodrug P12, (8R,9S,10R,13S,14S,17S)-10,13-Dimethyl-3-oxo-2,3,6,7,8,9,10,11,12,13,14,15,16,17-tetradecahydro-1H-cyclopenta[α]phenanthren-17-yl dimethylglycyl-L-phenylalaninate]: the “stability in rat brain homogenate” value in series [1] was “stable”. Further, the “plasma levels compared with testosterone” value in series [2] is given as “lower”.

As to `CC(=O)N[C@@H](CCC(=O)O[C@H]1CC[C@H]2[C@@H]3CCC4=CC(=O)CC[C@]4(C)[C@H]3CC[C@]12C)C(=O)O` [Prodrug P13, (S)-2-Acetamido-5-(((8R,9S,10R,13S,14S,17S)-10,13-dimethyl-3-oxo-2,3,6,7,8,9,10,11,12,13,14,15,16,17-tetradecahydro-1H-cyclopenta[α]phenanthren-17-yl)oxy)-5-oxopentanoic acid], in series [1], the “stability in rat brain homogenate” value was “stable”. Besides, the “levels of testosterone release” value in series [2] was “low levels”.

As for `C[C@]12CC[C@H]3[C@@H](CCC4=CC(=O)CC[C@@]43C)[C@@H]1CC[C@@H]2OC(=O)CC[C@H](N)C(=O)O` [Prodrug P14, (S)-2-Amino-5-(((8R,9S,10R,13S,14S,17S)-10,13-dimethyl-3-oxo-2,3,6,7,8,9,10,11,12,13,14,15,16,17-tetradecahydro-1H-cyclopenta[α]phenanthren-17-yl)oxy)-5-oxopentanoic acid], the “stability in rat brain homogenate” value in series [1] was “stable”. Moreover, in series [2], the “levels of testosterone release” value is recorded as “low levels”.
